{"source": "patent US20200239937A1", "about": "“BIOMARKERS FOR DIAGNOSING CONDITIONS” (The Council of the Queensland Institute of Medical Research, priority 2017, published 2020)", "key": {"G9a [1]": {"system": "G9a", "assay": "Ubiquitination assay (His-ubiquitin pull-down, G9a immunoblot)", "format": "cell-based", "conditions": "MCF7 cells, DMOG 1 mM", "procedure": "The ubiquitination assay was performed as described previously (Lee, Mol. Cell, 2012). Briefly, cells were transfected with expression constructs including His-tagged ubiquitin and treated with 5 μg/ml of MG132 for 4 hrs, lysed in buffer A (6 M guanidinium-HCl, 100 mM sodium phosphate, 10 mM Tris-HCl (pH 8.0), 5 mM imidazole, and 10 mM β-mercaptoethanol), and incubated with Ni^2+-NTA beads (QIAGEN) for 4 hrs at room temperature. The beads were then washed sequentially with buffer A, buffer B (8 M urea, 100 mM sodium phosphate buffer, 10 mM Tris-HCl (pH 8.0), and 10 mM β-mercaptoethanol), and buffer C (8 M urea, 100 mM sodium phosphate buffer, 10 mM Tris-HCl (pH 6.3), and 10 mM β-mercaptoethanol). Bound proteins were eluted with buffer D (200 mM imidazole, 150 mM Tris-HCl (pH 6.7), 30% glycerol, 0.72 M β-mercaptoethanol, and 5% SDS), and subject to immunoblot analysis."}, "G9a [2]": {"system": "G9a", "assay": "G9a immunoblotting of nuclear extracts", "format": "cell-based"}, "G9a and pVHL": {"system": "G9a and pVHL", "assay": "Co-immunoprecipitation of G9a and pVHL", "format": "cell-based", "conditions": "MCF7 cells, immunoprecipitated with anti-HA"}, "MCF7": {"system": "MCF7", "assay": "SRB assay, MCF7", "format": "cell-based", "conditions": "MCF7, 48 hour treatment, normoxic and hypoxic conditions", "procedure": "(§1) For proliferation studies, cells (5×10^3) were seeded in 96-place wells and allowed to attach overnight, and then incubated in fresh growth medium in the presence of either the G9a inhibitor UNC0642 (Sigma Aldrich) or the vehicle control DMSO (Sigma Aldrich). Proliferation was evaluated via real-time imaging using IncuCyte Zoom (Essen BioScience) or by performing SRB assays at the end of the treatment. For SRB assays, medium was aspirated and cells were fixed in methylated spirits before being washed with water and stained with SRB (Sigma Aldrich) solution (0.4% in 1% acetic acid). The intensity of the staining was obtained using an optical plate reader at 564 nm. Cell viability was determined using a 3-(4,5-dimethylthiazol-2-yl)-2,5-diphenyltetrazolium bromide ([…]) assay. Cells (3×10^3/well) were seeded directly into 96-well plates and allowed to adhere overnight. 96 hours after drug treatment, 20 μL of MU (5 mg/mL; Sigma-Aldrich) was added. The plates were incubated at 37° C. for 3 hrs before the supernatants were removed, and 100 μL of isopropanol was added to each well. The absorbance value (optical density) of each well was measured at 570 nm."}, "breast cancer cell lines": {"system": "breast cancer cell lines", "assay": "Cell survival (MTT) in breast cancer cell lines", "format": "cell-based", "conditions": "UNC0642 at 5 μM", "procedure": "as §1"}, "[3]": {"system": "breast cancer cell motility (MCF7, MDA231)", "assay": "Scratch wound assay", "format": "cell-based"}, "[4]": {"system": "AT3 syngeneic mammary tumor", "assay": "AT3 syngeneic mammary tumor growth in vivo", "design": "species or system C57BL/6 mice", "conditions": "5 mg/kg intraperitoneally every two days", "procedure": "C57BL/6 mice were purchased from the ARC Animal Resources Center. Groups of 8 to 10 mice per experiment were used for experimental tumor assays to ensure adequate power to detect biologic differences. All experiments were approved by the QIMR Berghofer Medical Research Institute Animal Ethics Committee. A total of 1×10^6 AT3 tumor cells were subcutaneously injected into mice in a 100 μL volume (on day 0) and UNC0642 administered every two days between days 16 and day 36. Tumor growth was measured using a digital calliper, and tumor volumes are presented as mean±SEM."}, "[5]": {"system": "H3K9me2 at promoters of G9a-repressed genes", "assay": "ChIP of H3K9me2 on promoters of G9a-repressed genes", "format": "cell-based", "conditions": "MCF7 cells, 3 μM UNC0642, hypoxia", "procedure": "(§2) Quantitative RT-PCR and ChIP assays were conducted as previously described."}, "10 G9a-suppressed genes": {"system": "10 G9a-suppressed genes", "assay": "Real-time qPCR of the 10 G9a-suppressed genes", "format": "cell-based", "conditions": "versus control cells", "procedure": "as §2\nBriefly, total RNA was isolated using Trizol (Invitrogen) and reverse transcription was performed from 2.5 μg of total RNA using the Superscript III cDNA synthesis kit (Invitrogen). The abundance of mRNA was detected by an ABI VIIA7 system with SYBR Green Master Mix (Life Technologies). Primer pairs were designed to amplify 90-150 bp mRNA specific fragments and were confirmed as unique products by melting curve analysis. The quantity of mRNA was calculated using ΔΔCt method and normalized by using primers to detect HPRT. All reactions were performed in triplicates."}, "MCF7 and MDA231 cells": {"system": "MCF7 and MDA231 cells", "assay": "Proliferation by IncuCyte Zoom real-time imaging", "format": "cell-based", "conditions": "48 hours", "procedure": "as §1"}, "H3K9me2": {"system": "H3K9me2", "assay": "Immunoblotting of global H3K9me2", "format": "cell-based", "conditions": "MCF7 nuclear extracts, 6 hrs"}, "[6]": {"system": "Bre80 and MCF10A breast epithelial cells", "assay": "Cell survival (MTT) in normal-like breast epithelial cells", "format": "cell-based", "conditions": "UNC0642 at 5 μM", "procedure": "as §1"}, "MDA231": {"system": "MDA231", "assay": "SRB assay, MDA231", "format": "cell-based", "conditions": "MDA231, 48 hour treatment, normoxic and hypoxic conditions", "procedure": "as §1"}}, "note": "Residues, ends and D or L forms follow the SMILES beside them. *: point of attachment. Cbz = O=C(OCc1ccccc1)*", "data": [{"compound": "COC(=O)CNC(=O)C(=O)OC", "note": "[DMOG, dimethyloxaloylglycine]", "values": [{"measurement": "level of G9a polyubiquitination", "setting": "G9a [1]", "value": "markedly reduced"}, {"measurement": "G9a protein levels", "setting": "G9a [2]; MCF7 and MDA231 cells, DMOG 1 mM, DFA 100 μM", "value": "increase in G9a protein levels"}, {"measurement": "interaction between G9a and pVHL", "setting": "G9a and pVHL", "value": "significantly inhibited"}]}, {"compound": "COc1cc2c(NC3CCN(C(C)C)CC3)nc(N3CCC(F)(F)CC3)nc2cc1OCCCN1CCCC1", "note": "[UNC0642]", "values": [{"measurement": "cells present after treatment", "setting": "MCF7", "value": "less than 20%"}, {"measurement": "survival of cancer cell lines", "setting": "breast cancer cell lines", "value": "significantly attenuated"}, {"measurement": "wound closure", "setting": "[3]; hypoxic condition, 72 hours", "value": "not able to close the wound even after 72 hours"}, {"measurement": "cellular migration (denuded area versus vehicle control)", "setting": "[3]; normoxic condition", "value": "inhibit cellular migration"}, {"measurement": "mean tumor volume at end-point versus vehicle treated group", "setting": "[4]", "value": "significantly lower"}, {"measurement": "tumor growth", "setting": "[4]; days 16 to 36", "value": "significantly reduced tumor growth"}, {"measurement": "hypoxia-mediated increase in H3K9me2 in promoters of G9a-repressed genes", "setting": "[5]", "value": "almost completely abrogated or significantly reduced"}, {"measurement": "hypoxia repression of expression of the 10 G9a-suppressed genes", "setting": "10 G9a-suppressed genes", "value": "repression was abolished"}, {"measurement": "confluency at the end of the experiment, fold less compared to vehicle control", "setting": "MCF7 and MDA231 cells; 2-3 μM", "value": "2 to 2.5", "unit": "fold"}, {"measurement": "proliferation compared to vehicle control", "setting": "MCF7 and MDA231 cells; various concentrations", "value": "dose-dependent reduction in proliferation"}, {"measurement": "global H3K9me2", "setting": "H3K9me2", "value": "significant reduction"}, {"measurement": "cell survival", "setting": "[6]", "value": "unaffected"}, {"measurement": "cells present after treatment", "setting": "MDA231", "value": "less than 20%"}]}, {"compound": "CC(C)C[C@@H](C=O)NC(=O)[C@H](CC(C)C)NC(=O)[C@H](CC(C)C)NC(=O)OCc1ccccc1", "note": "[MG132] (Cbz-Leu-Leu-Leu-aldehyde)", "values": [{"measurement": "G9a protein level", "setting": "G9a [2]; MCF7 cells, normoxia, 9 hrs, 20 μM MG132", "value": "increase in G9a protein level"}]}]}
